In brackets after ≈: the same amount, converted by molar mass.
How the values were obtained:
Assay in all cases: in vitro antifungal MIC, two-fold serial dilution
[1] = test system: C. psuedotropicalis 2371E; format: cell-based, Candida pseudotropicalis
Experimental: (§1) The in vitro evaluation of the anti-fungal activity of compounds of the invention was performed on liquid or solid medium by the anti-fungal two-fold serial dilution technique of determining the minimum inhibitory concentration (MIC) of anti-fungal agent that inhibited development of growth after 24 to 48 hours of incubation at 37° C. In practice, a series of agar plates or broth microdilution panels containing two-fold dilutions of anti-fungal agent tested were inoculated with a standard culture of a clinically relevant pathogen, for example, Candida albicans. The agar plates or broth microdulution panels were then examined for the presence or absence of growth of the fungus and the appropriate MIC values were noted.
(§2) Compounds of formula (I) have been tested for anti fungal activity in a standard in vitro screen and the minimum inhibiting concentration (MIC; μg/ml) determined for each compound against a variety of clinically relevant pathogens.

[2] = test system: C. tropicalis 2808E; format: cell-based, Candida tropicalis
Experimental: as §1, §2

[3] = test system: C. aibicans 2402E; format: cell-based, Candida albicans
Experimental: as §1, §2

[4] = test system: C. albicans 1208E; format: cell-based, Candida albicans
Experimental: as §1, §2

[5] = test system: C. albicans 2005E; format: cell-based, Candida albicans
Experimental: as §1, §2

[6] = test system: C. albicans 4711; format: cell-based, Candida albicans
Experimental: as §1, §2

[7] = test system: C. neoformans 2867E; format: cell-based, Cryptococcus neoformans
Experimental: as §1, §2

[8] = test system: C. glabrata 2376E; format: cell-based, Candida glabrata
Experimental: as §1, §2

[9] = test system: C. glabrata 2375E; format: cell-based, Candida glabrata
Experimental: as §1, §2

SMILES	MIC (minimum inhibiting concentration) [1]	MIC (minimum inhibiting concentration) [2]	MIC (minimum inhibiting concentration) [3]	MIC (minimum inhibiting concentration) [4]	MIC (minimum inhibiting concentration) [5]	MIC (minimum inhibiting concentration) [6]	MIC (minimum inhibiting concentration) [7]	MIC (minimum inhibiting concentration) [8]	MIC (minimum inhibiting concentration) [9]
CC(C)C(=O)OC1C(C)OC(OCC23CC4C(C)CCC4C4(C=O)CC2C=C(C(C)C)C43C(=O)O)C2OC12 [Example 59, [1R-(1α,3aβ,4β,4aβ,7β,7aα,8aβ)]8a-[(2,3-Anhydro-6-deoxy-4-O-(1-methylethyl)carbonyl-β-D-mannopyranosyloxy)methyl]-4-formyl-4,4a,5,6,7,7a,8,8a-octahydro-7-methyl-3-(1-methylethyl)-1,4-methano-s-indacene-3a(1H)-carboxylic acid]	0.015 µg/mL (≈ 0.0283 µM)	0.015 µg/mL (≈ 0.0283 µM)	0.008 µg/mL (≈ 0.0151 µM)	0.015 µg/mL (≈ 0.0283 µM)	≤ 0.001 µg/mL	0.002 µg/mL (≈ 0.00377 µM)	1.00 µg/mL (≈ 1.88 µM)	16.0 µg/mL (≈ 30.2 µM)	16.0 µg/mL (≈ 30.2 µM)
CC(C)C1=CC2CC3(C=O)C4CCC(C)C4CC2(COC2CC4OCOC4C(C)O2)C13C(=O)[O-].[Na+] (stereo not drawn) [Example 13]	0.008 µg/mL	0.120 µg/mL	0.015 µg/mL	0.015 µg/mL	0.008 µg/mL	0.015 µg/mL	0.500 µg/mL	8.00 µg/mL	8.00 µg/mL
C=CCOC1C(C)OC(OCC23CC4C(C)CCC4C4(C=O)CC2C=C(C(C)C)C43C(=O)O)C2OC12 [Example 68, [1R-(1α,3aβ,4β,4aβ,7β,7aβ,8aβ)]8a-[(4-O-Allyl,2,3-anhydro,6deoxy-β-D-mannopyranosyl)oxy-methyl]-4-formyl-4,4a5,6,7,7a8,8a-octahydro-7-methyl-3-(1-methylethyl)-1,4-methano-s-indacene-3a(1H)-carboxylic acid]	0.015 µg/mL (≈ 0.03 µM)	0.250 µg/mL (≈ 0.499 µM)	0.002 µg/mL (≈ 0.00399 µM)	0.060 µg/mL (≈ 0.12 µM)	0.060 µg/mL (≈ 0.12 µM)	0.030 µg/mL (≈ 0.0599 µM)	1.00 µg/mL (≈ 2 µM)	31.00 µg/mL (≈ 61.9 µM)	31.00 µg/mL (≈ 61.9 µM)
CCCOC1C(C)OC(OCC23CC4C(C)CCC4C4(C=O)CC2C=C(C(C)C)C43C(=O)O)C2OC12 [Example 52, [1R-(1α,3aβ,4β,4aβ,7β,7aα,8aβ)]8a-[(2,3-Anhydro-6-deoxy-4-O-propyl-β-D-mannopyranosyloxy)methyl]-4-formyl-4,4a,5,6,7,7a,8,8a-octahydro-7-methyl-3-(1-methylethyl)-1,4-methano-s-indacene-3a(1H)-carboxylic acid]	0.001 µg/mL (≈ 0.00199 µM)	0.030 µg/mL (≈ 0.0597 µM)	0.008 µg/mL (≈ 0.0159 µM)	0.004 µg/mL (≈ 0.00796 µM)	0.001 µg/mL (≈ 0.00199 µM)	0.004 µg/mL (≈ 0.00796 µM)	1.00 µg/mL (≈ 1.99 µM)	8.00 µg/mL (≈ 15.9 µM)	8.00 µg/mL (≈ 15.9 µM)
CC(C)C1=CC2CC3(C=O)C4CCC(C)C4CC2(COC2CC4OC(C)(C)OC4C(C)O2)C13C(=O)O [Example 6, [1R-(1α,3aβ,4β,4aβ,7β,7aα,8aβ)]8a-[(2,6-Dideoxy-3,4-O-isopropylidene-β-D-allopyranosyloxy)methyl]-4-formyl-4,4a,5,6,7,7a,8,8a-octahydro-7-methyl-3-(1-methylethyl)-4-methano-s-indacene-3a(1H)-carboxylic acid]	0.004 µg/mL (≈ 0.00796 µM)	0.120 µg/mL (≈ 0.239 µM)	0.008 µg/mL (≈ 0.0159 µM)	0.008 µg/mL (≈ 0.0159 µM)	0.001 µg/mL (≈ 0.00199 µM)	0.004 µg/mL (≈ 0.00796 µM)	8.00 µg/mL (≈ 15.9 µM)	31.00 µg/mL (≈ 61.7 µM)	31.00 µg/mL (≈ 61.7 µM)
CC(C)C1=CC2CC3(C=O)C4CCC(C)C4CC2(COC2OC(C)C(OCc4ccccc4)C4OC24)C13C(=O)O [Example 54, [1R-(1α,3aβ,4β,4aβ,7β,7aα,8aβ)]8a-[(2,3-Anhydro-4-O-benzyl-6-deoxy-β-D-mannopyranosyloxy)methyl]-4-formyl-4,4a,5,6,7,7a,8,8a-octahydro-7-methyl-3-(1-methylethyl)-1,4-methano-s-indacene-3a(1H)-carboxylic acid]	0.01 µg/mL (≈ 0.0182 µM)	≤ 0.001 µg/mL	≤ 0.001 µg/mL	≤ 0.001 µg/mL	≤ 0.001 µg/mL	≤ 0.001 µg/mL	2.00 µg/mL (≈ 3.63 µM)	8.00 µg/mL (≈ 14.5 µM)	8.00 µg/mL (≈ 14.5 µM)
CC(C)C1=CC2CC3(C=O)C4CCC(C)C4CC2(COC2CC4=CCOC4C(C)O2)C13C(=O)O [Example 43, [1R-(1α,3aβ,4β,4aβ,7β,7aα,8aβ)]8a-[(1S,7R,9R)-2,8-Dioxa-9-methyl-bicyclo[3,4,0]-non-4-ene-7-yl-oxymethyl]-4-formyl-4,4a,5,6,7,7a,8,8a-octahydro-7-methyl-3-(1-methylethyl)-1,4-methano-s-indacene-3a(1H)-carboxylic acid]	< 0.001 µg/mL	0.500 µg/mL (≈ 1.06 µM)	0.001 µg/mL (≈ 0.00212 µM)	0.001 µg/mL (≈ 0.00212 µM)	0.001 µg/mL (≈ 0.00212 µM)	0.001 µg/mL (≈ 0.00212 µM)	2.00 µg/mL (≈ 4.25 µM)	4.00 µg/mL (≈ 8.5 µM)	4.00 µg/mL (≈ 8.5 µM)
COC1C(C)OC(OCC23CC4C(C)CCC4C4(C=O)CC2C=C(C(C)C)C43C(=O)O)C2SC12 [Example 51, [1R-(1α,3aβ,4β,4aβ,7β,7aα,8aβ)]8a-[(2,3-Epithio-4-O-methyl-2,3,6-trideoxy-β-D-mannopyranosyloxy)methyl]-4-formyl-4,4a,5,6,7,7a,8,8a-octahydro-7-methyl-3-(1-methylethyl)-1,4-methano-s-indacene-3a(1H)-carboxylic acid]	0.008 µg/mL (≈ 0.0163 µM)	0.500 µg/mL (≈ 1.02 µM)	0.120 µg/mL (≈ 0.245 µM)	0.120 µg/mL (≈ 0.245 µM)	0.030 µg/mL (≈ 0.0611 µM)	0.120 µg/mL (≈ 0.245 µM)	≤ 125 µg/mL	16.00 µg/mL (≈ 32.6 µM)	16.00 µg/mL (≈ 32.6 µM)
CC(C)C1=CC2CC3(C=O)C4CCC(C)C4CC2(COC2OC(C)C4OC(C)(C)OC4C2O)C13C(=O)O [Example 1, [1R-(1α,3aβ,4β,4aβ,7β,7aα,8aβ)]8a-[(6-Deoxy-3,4-O-isopropylidene-β-D-altropyranosyloxy)methyl]-4-formyl-4,4a,5,6,7,7a,8,8a-octahydro-7-methyl-3-(1-methylethyl)-1,4-methano-s-indacene-3a(1H)-carboxylic acid]	0.060 µg/mL (≈ 0.116 µM)	1.000 µg/mL (≈ 1.93 µM)	0.500 µg/mL (≈ 0.964 µM)	0.500 µg/mL (≈ 0.964 µM)	0.120 µg/mL (≈ 0.231 µM)	0.280 µg/mL (≈ 0.54 µM)	> 125 µg/mL	31.00 µg/mL (≈ 59.8 µM)	31.00 µg/mL (≈ 59.8 µM)

Source: patent US5854280A, “Antifungal sordaridin derivatives” (Glaxo Wellcome S.A., priority 1994, dated 1998)
